In brackets after ≈: the same amount, converted by molar mass. Activity calls are given as the source filed them. No cut-off for these calls is given here.
Key:
[1] = system: Staphylococcus epidermidis; test: Antibacterial activity against Staphylococcus epidermidis ATCC 12228 after 24 hrs by 2-fold microtiter broth dilution method; assay type: functional; conditions: ATCC 12228, 24 h
Bacillus subtilis = test: Antibacterial activity against Bacillus subtilis ATCC 6633 after 24 hrs by 2-fold microtiter broth dilution method; assay type: functional; conditions: ATCC 6633, 24 h
Klebsiella pneumoniae = test: Antibacterial activity against Klebsiella pneumoniae ATCC 4352 after 24 hrs by 2-fold microtiter broth dilution method; assay type: functional, organism-based
Staphylococcus aureus = test: Antibacterial activity against Staphylococcus aureus ATCC 6538 after 24 hrs by 2-fold microtiter broth dilution method; assay type: functional, organism-based
Salmonella typhimurium = test: Antibacterial activity against Salmonella Typhimurium ATCC 14028 after 24 hrs by 2-fold microtiter broth dilution method; assay type: functional, organism-based; conditions: Salmonella enterica subsp. enterica serovar Typhimurium
Micrococcus luteus = test: Antibacterial activity against Micrococcus luteus ATCC 9341 after 24 hrs by 2-fold microtiter broth dilution method; assay type: functional, organism-based
Escherichia coli = test: Antibacterial activity against Escherichia coli ATCC 11775 after 24 hrs by 2-fold microtiter broth dilution method; assay type: functional, organism-based

Row | MIC [1] [µg/mL] | MIC (Bacillus subtilis) [µg/mL] | SMILES | Activity (Klebsiella pneumoniae) | Activity (Staphylococcus aureus) | Activity (Salmonella typhimurium) | Activity (Micrococcus luteus) | Activity (Escherichia coli)
1 | 50 (≈ 173 µM) | – | O=C(c1ccc(O)cc1)c1nccc2c1[nH]c1ccccc12 [EUDISTOMIN Y1] | – | – | – | – | –
2 | – | 200 (≈ 448 µM) | O=C(c1ccc(O)c(Br)c1)c1nccc2c1[nH]c1ccc(Br)cc12 [EUDISTOMIN Y4] | – | – | – | – | –
3 | 12.5 (≈ 23.8 µM) | 25 (≈ 47.6 µM) | O=C(c1cc(Br)c(O)c(Br)c1)c1nccc2c1[nH]c1ccc(Br)cc12 [EUDISTOMIN Y6] | inactive | inactive | inactive | inactive | inactive
